In ChEMBL document CHEMBL1201862, “PubChem BioAssay data set” (2004):
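In this assay, cells in 96-well plates receive the compound at five concentrations for 48 hours. Endpoints are linearly interpolated between the surrounding concentrations. GI50 is the concentration that inhibits growth by half.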 Calls of active or inactive are those of the source. Rule as the data show it: active = GI50 up to about 1.1 µM and inactive = higher.

What was measured:
Experiment in all cases: inhibition of tumour cell growth, NCI panel, 48 h
[1] = test system: U-251
[2] = test system: RPMI-8226
[3] = test system: OVCAR-8
[4] = test system: TK-10
[5] = test system: COLO 205
[6] = test system: LOX IMVI
[7] = test system: DLD-1
[8] = test system: MOLT-4
[9] = test system: DMS-273
[10] = test system: OVCAR-4
[11] = test system: NCI-H23
[12] = test system: KM12
[13] = test system: CAKI-1
[14] = test system: SN12C
[15] = test system: UACC-62
[16] = test system: UACC-257
[17] = test system: SF-539
[18] = test system: HCC 2998
[19] = test system: OVCAR-3
[20] = test system: HT-29
[21] = test system: NCI-H522
[22] = test system: K562
[23] = test system: SW-620
[24] = test system: Malme-3M
[25] = test system: LXFL 529
[26] = test system: KM-20L2
[27] = test system: IGROV-1
[28] = test system: HOP-62
[29] = test system: NCI-H460
[30] = test system: SNB-19
[31] = test system: SK-MEL-2
[32] = test system: UO-31
[33] = test system: ACHN
[34] = test system: OVCAR-5
[35] = test system: NCI-H226
[36] = test system: HCT-15
[37] = test system: A549
[38] = test system: SK-MEL-28
[39] = test system: XF498
[40] = test system: HL-60
[41] = test system: HOP-92
[42] = test system: 786-0
[43] = test system: M14
[44] = test system: SF-295
[45] = test system: SNB-75
[46] = test system: SNB-78
[47] = test system: SK-OV-3
[48] = test system: SF-268
[49] = test system: A498
[50] = test system: BT-549
[51] = test system: MCF7
[52] = test system: PC-3
[53] = test system: SK-MEL-5
[54] = test system: T47D
[55] = test system: SR
[56] = test system: MDA-MB-231
[57] = test system: RXF 393
[58] = test system: DU-145
[59] = test system: MDA-MB-435
[60] = test system: CCRF-CEM
[61] = test system: MDA-N
[62] = test system: Hs-578T
[63] = test system: HCT-116
[64] = test system: NCI/ADR-RES
[65] = test system: EKVX

In the case of `CCCCN(CCCC)C(=O)C(=O)C(C)C(=O)CC` (configuration not stated), the GI50 [1] is reported as > 100000 nM (inactive), the GI50 [2] is reported as > 100000 nM (inactive) and the GI50 [3] is reported as > 100000 nM (inactive). The GI50 [4] was > 100000 nM (inactive), the GI50 [5] was > 100000 nM (inactive) and the GI50 [6] was > 100000 nM (inactive). The GI50 [7] was > 100000 nM (inactive), the GI50 [8] was > 100000 nM (inactive) and the GI50 [9] was > 100000 nM (inactive). The GI50 [10] was > 100000 nM (inactive), the GI50 [11] was > 100000 nM (inactive) and the GI50 [12] was > 100000 nM (inactive). The GI50 [13] was > 100000 nM (inactive), the GI50 [14] was > 100000 nM (inactive) and the GI50 [15] was > 100000 nM (inactive). The GI50 [16] was > 100000 nM (inactive), the GI50 [17] was > 100000 nM (inactive) and the GI50 [18] was > 100000 nM (inactive). The GI50 [19] was > 100000 nM (inactive), the GI50 [20] was > 100000 nM (inactive) and the GI50 [21] was > 100000 nM (inactive). The GI50 [22] was > 100000 nM (inactive), the GI50 [23] was > 100000 nM (inactive) and the GI50 [24] was > 100000 nM (inactive). The GI50 [25] was > 100000 nM (inactive), the GI50 [26] was > 100000 nM (inactive) and the GI50 [27] was > 100000 nM (inactive). For the same compound, the GI50 [28] was > 100000 nM (inactive), the GI50 [29] was > 100000 nM (inactive) and the GI50 [30] was > 100000 nM (inactive). The GI50 [31] was > 100000 nM (inactive), the GI50 [32] was > 100000 nM (inactive) and the GI50 [33] was > 100000 nM (inactive). The GI50 [34] was > 100000 nM (inactive), the GI50 [35] was > 100000 nM (inactive) and the GI50 [36] was over 100000 nM. For the same compound, the GI50 [37] was > 100000 nM (inactive), the GI50 [38] was > 100000 nM (inactive) and the GI50 [39] was > 100000 nM (inactive). For the same compound, the GI50 [40] was > 100000 nM (inactive), the GI50 [41] was > 100000 nM (inactive) and the GI50 [42] was > 100000 nM (inactive). For the same compound, the GI50 [43] was > 100000 nM (inactive), the GI50 [44] was > 100000 nM (inactive) and the GI50 [45] was > 100000 nM (inactive). The GI50 [46] was > 100000 nM (inactive), the GI50 [47] was > 100000 nM (inactive) and the GI50 [48] was > 100000 nM (inactive).
In the case of `C/C(=C\c1csc(C)n1)[C@@H]1C[C@@H]2O[C@]2(C)CCC[C@H](C)[C@H](O)[C@@H](C)C(=O)C(C)(C)[C@@H](O)CC(=O)O1` [PATUPILONE], the GI50 [49] is reported as < 0.1 nM (active), the GI50 [50] is reported as < 0.1 nM (active) and the GI50 [51] is reported as < 0.1 nM (active). The GI50 [1] was < 0.1 nM (active), the GI50 [52] was < 0.1 nM (active) and the GI50 [2] was < 0.1 nM (active). The GI50 [3] was < 0.1 nM (active), the GI50 [4] was < 0.1 nM (active) and the GI50 [53] was < 0.1 nM (active). For the same compound, the GI50 [5] was < 0.1 nM (active), the GI50 [6] was < 0.1 nM (active) and the GI50 [54] was < 0.1 nM (active). The GI50 [8] was < 0.1 nM (active), the GI50 [10] was 0.458 nM (active) and the GI50 [55] was < 0.1 nM (active). For the same compound, the GI50 [11] was < 0.1 nM (active), the GI50 [56] was < 0.1 nM (active) and the GI50 [12] was < 0.1 nM (active). For the same compound, the GI50 [13] was < 0.1 nM (active), the GI50 [14] was < 0.1 nM (active) and the GI50 [57] was < 0.1 nM (active). For the same compound, the GI50 [15] was < 0.1 nM (active), the GI50 [58] was < 0.1 nM (active) and the GI50 [59] was < 0.1 nM (active). The GI50 [16] was < 0.1 nM (active), the GI50 [17] was < 0.1 nM (active) and the GI50 [60] was < 0.1 nM (active). The GI50 [18] was < 0.1 nM (active), the GI50 [19] was < 0.1 nM (active) and the GI50 [20] was < 0.1 nM (active). The GI50 [21] was < 0.1 nM (active), the GI50 [22] was < 0.1 nM (active) and the GI50 [23] was < 0.1 nM (active). For the same compound, the GI50 [24] was 10 nM (active), the GI50 [27] was < 0.1 nM (active) and the GI50 [28] was < 0.1 nM (active). The GI50 [29] was < 0.1 nM (active), the GI50 [30] was < 0.1 nM (active) and the GI50 [31] was < 0.1 nM (active). For the same compound, the GI50 [32] was < 0.1 nM (active), the GI50 [33] was < 0.1 nM (active) and the GI50 [34] was < 0.1 nM (active). For the same compound, the GI50 [35] was < 0.1 nM (active), the GI50 [36] was under 0.1 nM and the GI50 [37] was < 0.1 nM (active). The GI50 [61] was < 0.1 nM (active), the GI50 [62] was < 0.1 nM (active) and the GI50 [38] was < 0.1 nM (active). For the same compound, the GI50 [63] was < 0.1 nM (active), the GI50 [40] was < 0.1 nM (active) and the GI50 [41] was < 0.1 nM (active). The GI50 [42] was < 0.1 nM (active), the GI50 [64] was < 0.1 nM (active) and the GI50 [65] was < 0.1 nM (active). For the same compound, the GI50 [43] was < 0.1 nM (active), the GI50 [44] was < 0.1 nM (active) and the GI50 [45] was < 0.1 nM (active). The GI50 [47] was < 0.1 nM (active) and the GI50 [48] was < 0.1 nM (active).
